Reference: patent US20100330070A1, “Methods Of Making An Antibody And Compositions Thereof” (priority 2009, published 2010)

Columns and labels:
LL-37 [1] = experiment: LL-37 expression by OBA9 cells with Sepharose-coupled benzoic acid isomers; type: cell-based, human; details: isomer coupled to NHS-activated Sepharose gel with EDC
Excerpt: In order to investigate the structure-function relationship underlying EGCG-mediated induction of LL-37 from human gingival epithelial cell line OBA9, different isomers of benzoic acids are examined for their effects on the LL-37 expression by OBA9 cells. Each isomer of benzoic acids is coupled to NHS-activated Sepharose gel (Pierce) using a cross-linker, 1-Ethyl-3-[3-dimethylaminopropyl]carbodiimide (EDC, Pierce). The isomers of benzoic acids include 1) 2,6-di-hydroxy benzoic acid, 2) 2,3,4-tri-hydroxy benzoic acids, 3) 3,4,5-tri-hydroxy benzoic acids, and 4) 2,4,6-tri-hydroxy benzoic acids.

LL-37 [2] = experiment: ELISA of LL-37 induction from OBA9 cells; type: cell-based, human; details: for induction of LL-37 expression: in the absence of EGCG; for induction of LL-37 (ELISA): 20 ug/ml
Procedure: (§1) Using ELISA systems to detect LL-37 (Forsyth in-house) and hBD2 (Peprotech), 33 natural compounds (20 ug/ml) are examined for their ability to induce LL-37 and hBD2 from OBA9 cells. Although the sensitivity of the hBD2 ELISA is higher than that of LL-37 ELISA (10 pg/ml vs 1 ng/ml, respectively), the induction of LL-37 is more prominent than hBD2 (FIG. 2 A&B, LL-37; C&D, hBD2). […] Bactericidal effects of LL-37 and hBD2 are, in general, potent.
The Trihydroxybenzoate Derivatives of the Invention and rosemarinic acid, courmarin, catechin gallate, epicatechin gallate, epigallocatechin, and tannic acid are tested to induce LL-37 from OBA9 cells in the absence of EGCG.

[3] = system: Actinobacillus actinomycetemcomitans Y4; experiment: Bactericidal effect of culture supernatant of treated OBA9 cells; type: cell-based; details: supernatant of OBA9 treated at 20 ug/ml; compared with non-treated, catechin- and 2,4-dihydroxy benzoic acid-treated supernatant
Procedure: The culture supernatant isolate from OBA9 is treated with 1) EGCG, 2) catechin, 3) 2,4-dihydroxy benzoic acid, and 4) 3,4,5-tri-hydroxy benzoic acid (20 ug/ml, respectively) and examined for their bactericidal effects on Actinobacillus actinomycetemcomitans Y4 (Aa Y4).

LL-37 mRNA [4] = experiment: LL-37 mRNA expression in human gingival epithelial cell line OBA9; type: cell-based; details: OBA9 cells, 4-hour exposure, 0.1, 1.0 and 10 ug/ml
Procedure: (§2) Both LL-37 and hBD2 mRNA expression in OBA9 cells are induced after a 4-hour exposure to green tea polyphenol extract, Teaflan 90S (EGCG 50%, ECG 13%), and purified EGCG (95% pure, SIGMA) at concentrations of 0.1, 1.0 and 10 ug/ml. EGCG increases the production of LL-37 and hBD2 at the mRNA level in the human gingival epithelial cell line OBA9 (FIG. 1) as well as the human lung carcinoma cell line A549.

hBD2 mRNA [5] = experiment: hBD2 mRNA expression in human gingival epithelial cell line OBA9; type: cell-based; details: OBA9 cells, 4-hour exposure, 0.1, 1.0 and 10 ug/ml
Procedure: as §2

LL-37 mRNA [6] = experiment: LL-37 mRNA level in human lung carcinoma cell line A549; type: cell-based; details: A549 cells
Procedure: as §2

hBD2 mRNA [7] = experiment: hBD2 mRNA level in human lung carcinoma cell line A549; type: cell-based; details: A549 cells
Procedure: as §2

LL-37 mRNA [8] = experiment: RT-PCR of LL-37 mRNA in cheek epithelial cells after mouthwash; type: in vivo, human; details: mouthwash with 40 ug/ml, after 5 minutes
Excerpt: (§3) Cheek epithelium is utilized for monitoring LL-37 mRNA and protein expression to determine if Trihydroxybenzoate Derivatives of the Invention can induce LL-37 in vivo. […] The isolated cheek cells are also subjected to Western blot analysis for protein expression of LL-37 by cheek epithelium using anti-LL-37 monoclonal antibody. The expression of both the proform (18 kD, also termed as hCAP18) and secreted form (4.5 kD) of LL-37 (12) in cheek epithelial cells is induced by Trihydroxybenzoate Derivatives of the Invention (e.g., EGCG (95% SIGMA), or by EGCG (90% Teavigo)).

LL-37 [9] = experiment: Western blot of LL-37 protein in cheek epithelial cells; type: in vivo, human; details: Western blot with anti-LL-37 monoclonal antibody
Excerpt: as §3

hBD2 = experiment: ELISA of hBD2 induction from OBA9 cells; type: cell-based, human; details: 20 ug/ml
Procedure: as §1

Question: For O=C(O)c1ccc(O)c(O)c1O [2,3,4-tri-hydroxy benzoic acids, 2,3,4-trihydroxybenzoic acid], which “induction of LL-37 expression by OBA9 cells” value (“induction … by OBA9 cells” for short) (LL-37 [1]) is on record?
Answer: The value was “show the induction”.

Question: For O=C(O)c1cc(O)c(O)c(O)c1 [gallic acid, 3,4,5-trihydroxybenzoic acid], which “induction of LL-37 expression” value (LL-37 [2]) is on record?
Answer: Its value is “more potent than 3,4,-dihydroxy benzoate”.

Question: And the “bactericidal effects of culture supernatant on Aa Y4” value [3]?
Answer: Its value is “more bactericidal effects than control”.

Question: And the “induction … by OBA9 cells” value (LL-37 [1])?
Answer: Its value is “show the induction”.

Question: How did the “LL-37 mRNA expression” value (LL-37 mRNA [4]) turn out when O=C(O[C@@H]1Cc2c(O)cc(O)cc2O[C@@H]1c1cc(O)c(O)c(O)c1)c1cc(O)c(O)c(O)c1 [EGCG] was run?
Answer: The value was “induced”.

Question: And the “hBD2 mRNA expression” value (hBD2 mRNA [5])?
Answer: Its value is “induced”.

Question: What about the “production of LL-37 at the mRNA level” value (LL-37 mRNA [6]) of the same compound?
Answer: The value was “increases”.

Question: And the “production of hBD2 at the mRNA level” value (hBD2 mRNA [7])?
Answer: The value was “increases”.

Question: What about the “bactericidal effects of culture supernatant on Aa Y4” value [3] of the same compound?
Answer: Its value is “more bactericidal effects than control”.

Question: What about the “LL-37 mRNA expression by cheek epithelial cells” value (LL-37 mRNA [8]) of the same compound?
Answer: The value was “up-regulated”.

Question: What about the “expression of proform (18 kD) and secreted form (4.5 kD) of LL-37 in cheek epithelial cells” value (LL-37 [9]) of the same compound?
Answer: The value was “induced”.

Question: CCCCCCCCCCCCCC(=O)O[C@@H]1[C@@H](C)[C@@]2(O)[C@@H](C=C(CO)C[C@]3(O)C(=O)C(C)=C[C@@H]23)[C@@H]2C(C)(C)[C@]12OC(C)=O [PMA] was tested. Which “induction of LL-37 (ELISA)” value (LL-37 [2]) did it give?
Answer: Its value is “induced”.

Question: What about the “induction of hBD2 (ELISA)” value (hBD2) of the same compound?
Answer: The value was “minimal induction activities”.

Question: For O=c1ccc2ccccc2o1 [courmarin], which “induction of LL-37 expression” value (LL-37 [2]) is on record?
Answer: Its value is “little or no induction”.

Question: Which results are given for Poly IC?
Answer: induction of LL-37 (ELISA) (LL-37 [2]): induced; induction of hBD2 (ELISA) (hBD2): minimal induction activities

Question: O=C(O)c1c(O)cccc1O [2,6-di-hydroxy benzoic acids, 2,6-di-hydroxy benzoic acid] was tested. Which “induction … by OBA9 cells” value (LL-37 [1]) did it give?
Answer: Its value is “not”.

Question: For O=C(/C=C/c1ccc(O)c(O)c1)O[C@H](Cc1ccc(O)c(O)c1)C(=O)O [Rosemarinic acid], which “induction of LL-37 expression” value (LL-37 [2]) is on record?
Answer: Its value is “little or no induction”.

Question: For O=C(O)c1c(O)cc(O)cc1O [2,4,6-tri-hydroxy benzoic acids], which “induction … by OBA9 cells” value (LL-37 [1]) is on record?
Answer: Its value is “not”.
